# Test results reported in patent US20240124464A1, “SUBSTITUTED FUSED BICYCLIC COMPOUND AS KINASE INHIBITOR AND USE THEREOF” (IMPACT THERAPEUTICS (SHANGHAI), INC, priority 2020, published 2024).
# Numbering of substitutions follows the chain as printed.
# Tests used:
# [1] = target: T1, NUAK1(h) enzyme (Homo sapiens, UniProt O60285); assay: In vitro NUAK1 enzymatic assay (Eurofins Discovery, [γ-33P]-ATP filter assay); type: biochemical; settings: 45 μM ATP, 40 min, room temperature; read-out: IC50, inhibitory effect on NUAK1 enzyme activity
# T1 construct: purchased Eurofins Discovery
# T1 sequence (O60285 1-661): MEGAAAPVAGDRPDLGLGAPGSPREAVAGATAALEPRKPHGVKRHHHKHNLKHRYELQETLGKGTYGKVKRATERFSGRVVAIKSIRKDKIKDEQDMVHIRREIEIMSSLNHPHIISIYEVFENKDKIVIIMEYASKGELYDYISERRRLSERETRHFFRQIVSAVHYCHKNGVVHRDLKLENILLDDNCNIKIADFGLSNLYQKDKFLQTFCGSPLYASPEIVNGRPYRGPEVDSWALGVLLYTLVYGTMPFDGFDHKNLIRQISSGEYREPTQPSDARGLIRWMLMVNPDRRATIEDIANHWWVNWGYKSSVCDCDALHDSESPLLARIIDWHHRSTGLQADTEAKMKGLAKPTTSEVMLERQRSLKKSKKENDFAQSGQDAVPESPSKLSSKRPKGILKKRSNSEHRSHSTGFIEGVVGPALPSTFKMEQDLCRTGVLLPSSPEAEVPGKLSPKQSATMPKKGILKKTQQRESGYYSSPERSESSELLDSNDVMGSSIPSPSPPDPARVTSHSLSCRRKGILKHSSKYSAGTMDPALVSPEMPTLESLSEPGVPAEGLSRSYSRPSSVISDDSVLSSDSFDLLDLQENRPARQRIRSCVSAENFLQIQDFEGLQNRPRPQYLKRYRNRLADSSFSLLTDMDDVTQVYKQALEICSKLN
# Procedure: In Vitro Assay to Determine the Inhibitory Effect of Compounds in the Patent on NUAK1 Enzymatic Activity
# The in vitro NUAK1 enzymatic assay was carried out at Eurofins Discovery to evaluate the inhibitory effect of the compounds presented in the invention. The assay protocol is as follow: the compound to be tested was mixed with NUAK1(h) enzyme and 300 μM […] substrate in 8 mM MOPS (pH 7.0) buffer containing 0.2 mM EDTA and incubated at room temperature. A Mg/ATP mixture containing 10 mM magnesium acetate and 45 μM [y-33P]-ATP was added to start the reaction. After incubation for 40 min at room temperature, the reaction was terminated by adding 0.5% phosphoric acid. Then, 10 μL of the reaction mix was spotted onto a P30 filter paper followed with four times of wash with 0.425% phosphoric acid solution (4 min each time), and one time wash with methanol. The filter paper was air-dried and counted in a liquid scintillation counter. The values obtained were plotted against the drug concentration and the IC50 was calculated.
# Table 1 summarizes the inhibitory effect (IC50) of compounds tested on the NUAK1 enzyme activity in the present invention. ++++ indicates IC50≤10 nM; […]; ++ indicates 100 nM<IC50≤1 μM; + indicates IC50>1 μM.
# [2] = target: T2, NUAK2(h) enzyme (Homo sapiens, UniProt Q9H093); assay: In vitro NUAK2 enzymatic assay (Eurofins Discovery, [γ-33P]-ATP filter assay); type: biochemical; settings: 45 μM ATP, 40 min, room temperature; read-out: IC50, inhibitory effect on NUAK2 enzyme activity
# T2 construct: purchased Eurofins Discovery
# T2 sequence (Q9H093 1-628): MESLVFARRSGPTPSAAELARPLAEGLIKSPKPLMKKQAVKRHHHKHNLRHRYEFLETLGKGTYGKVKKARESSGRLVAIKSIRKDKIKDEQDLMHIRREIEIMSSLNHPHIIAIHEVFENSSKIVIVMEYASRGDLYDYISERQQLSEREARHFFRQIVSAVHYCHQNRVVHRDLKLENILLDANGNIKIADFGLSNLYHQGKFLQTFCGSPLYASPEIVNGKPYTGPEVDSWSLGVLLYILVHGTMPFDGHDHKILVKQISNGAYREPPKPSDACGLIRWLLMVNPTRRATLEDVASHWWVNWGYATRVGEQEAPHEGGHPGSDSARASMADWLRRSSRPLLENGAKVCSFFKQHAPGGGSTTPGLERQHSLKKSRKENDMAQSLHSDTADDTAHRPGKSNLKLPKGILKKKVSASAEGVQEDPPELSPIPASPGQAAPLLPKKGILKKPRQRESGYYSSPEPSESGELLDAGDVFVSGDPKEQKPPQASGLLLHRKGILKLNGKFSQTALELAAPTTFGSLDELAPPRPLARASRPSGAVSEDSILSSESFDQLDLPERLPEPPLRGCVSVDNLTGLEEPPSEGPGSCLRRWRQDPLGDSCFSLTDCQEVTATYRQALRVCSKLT
# Procedure: In Vitro Assay to Determine the Inhibitory Effect of Compounds in the Patent on NUAK2 Enzymatic Activity
# The in vitro NUAK2 enzymatic assay was carried out at Eurofins Discovery to evaluate the inhibitory effect of the compounds presented in the invention. The assay protocol is as follow: the compound to be tested was mixed with NUAK2(h) enzyme and 300 […] substrate in 8 mM MOPS (pH 7.0) buffer containing 0.2 mM EDTA. A Mg/ATP mixture containing 10 mM magnesium acetate and 45 μM [γ-33P]-ATP was added to start the reaction. After incubation for 40 min at room temperature, the reaction was terminated by adding 0.5% phosphoric acid. Then 10 μL of the reaction mix was spotted onto a P30 filter paper. The filter paper was washed four times with 0.425% phosphoric acid with 4 min for each wash, and one time with methanol. The filter paper was air-dried and counted in a liquid scintillation counter. The values obtained were plotted against the drug concentration and the IC50 was calculated.
# Table 1 summarizes the inhibitory effect (IC50) of compounds on the NUAK2 enzyme activity in the present invention. ++++ indicates IC50≤10 nM; +++ indicates 10 nM<IC50≤100 nM; ++ indicates 100 nM<IC50≤1 μM; + indicates IC50>1 μM.
# [3] = tested on: HEC-1-B human endometrial cancer cells; assay: CTG (CellTiter-Glo) proliferation assay on HEC-1-B cells, 7 days; type: cell-based; settings: 168 h, 7 days incubation, read-out: IC50, inhibitory effect on proliferation of Hec-1B cells
# Procedure: CTG Assay to Evaluate the Inhibitory Effect of Compounds on HEC-1-B Human Endometrial Cancer Cells
# Human endometrial cancer HEC-1-B cells were resuscitated and cultured in complete medium (MEM medium+10% FBS). When reaching about 80% confluence, the cells were gently blown away from the bottom of the culture dish with a 1 mL pipette. The cells were collected and centrifuged at 500 rpm for 3 min. The supernatant was discarded and the cell pellet was resuspend in fresh medium. Cells were counted to determine cell density and seeded into 96-well plates at a density of 1000 cells per well and incubated overnight at 37° C. in a 5% CO2 incubator. In the next day, the compounds in storage solution was serially diluted with DMSO at a ratio of 1:3 for a total of 9 concentrations. Two μL of each serially diluted solution was added to 98 μL of cell culture medium ([…]), while DMSO was mixed with culture medium similarly to be served as control. The compound dilutions were shaken and mixed. The cell culture plate with cells was removed from CO2 incubator, the culture medium was aspirated from each well, 135 μL of fresh medium was added to each well followed with 15 μL of the compound dilutions. The plates were incubated at 37° C. for 7 days in a 5% CO2 incubator. One hundred μL CellTiter-Glo reagent was added to each well and the plate was vortexed for 2 min and incubated for 10 min to fully lyse the cells. The chemiluminescence values were read using a plate reader.
# The chemiluminescence values were plotted against compound concentrations to calculate the inhibitory activity of each compound on cell proliferation Cell inhibition rate (%)=(chemiluminescence value tested compound−chemiluminescence value DMSO control)/(chemiluminescence value medium control−chemiluminescence valueDMSO control)×100%.
# A nonlinear S-curve regression was fitted using XLFit software to fit the data to derive a dose-effect curve, from which the IC50 values were calculated. The curve equation was Y=Bottom+(Top-Bottom)/(1+10{acute over ( )}((LogIC50-X)×slope)), where Y is the cellular inhibition rate, X is the compound concentration, Bottom refers to the lowest inhibition rate, and Top refers to the highest inhibition rate.
# Table 3 summarizes the inhibitory effects (IC50) of the compounds on the proliferation of Hec-1B cells, Where ++++ indicates 100 nM<IC50≤500 nM; +++ indicates 500 nM<IC50≤1 μM; ++ indicates 1 μM<IC50≤10 μM; + indicates IC50>10 μM.
# [4] = target: T3, NUAK1 (Homo sapiens, UniProt O60285); settings: cited from earlier work
# T3 sequence (O60285 1-661): T1 sequence (O60285 1-661)
# [5] = target: T4, NUAK1 (mutation from Ala to Thr at position 195) (Homo sapiens, UniProt O60285, A195T); settings: cited from earlier work
# T4 sequence (O60285 1-661 A195T): T1 sequence (O60285 1-661) with A195T
# [6] = tested on: MEF cells; settings: compared with shRNA knockdown of NUAK1; cited from earlier work
# [7] = tested on: U2OS cell; settings: 3D invasion assay, compared with NUAK1 knockout; cited from earlier work
SMILES,IC50 [1] [µM],IC50 [2] [µM],IC50 [3] [µM],inhibition of phosphorylation of MYPT1 by NUAK1 at Ser445 [4],resistance of NUAK1 Ala195Thr mutant to the inhibitor [5] [fold],inhibition on proliferation against MEF cells [6],inhibition of U2OS cell invasion [7]
"COc1cc(N2CCN(C)CC2)ccc1Nc1ncc2c(n1)N(C1CCCCC1)C(=O)CC2 [Example 29, 8-cyclohexyl-2-((2-methoxy-4-(4-methylpiperazin-1-yl)phenyl)amino)-5,8-dihydropyrido[2,3-d]pyrimidin-7(6H)-one]",0.01 to 0.1,0.01 to 0.1,0.5 to 1,,,,
"CN1CCN(c2ccc(Nc3ncc4c(n3)N(C3CCCC3)C(=O)NC4)c(Br)c2)CC1 [Example 32, 7-((2-bromo-4-(4-methylpiperazin-1-yl)phenyl)amino)-1-cyclopentyl-3,4-dihydropyrimido[4,5-d]pyrimidin-2(1H)-one]",0.01 to 0.1,0.01 to 0.1,1 to 10,,,,
Cc1nc(Nc2cnn(C3CCNCC3)c2)nc2c1N(C)C(=O)c1cc3ccccc3cc1N2C [HTH-01-015],,,,inhibit the phosphorylation of MYPT1,50,comparable to that of shRNA knockdown of NUAK1,inhibited U2OS cell invasion similarly to NUAK1 knockout did
CCC(=O)Nc1cccc(Oc2nc(Nc3ccc(N4CCN(C)CC4)cc3OC)ncc2Cl)c1 [WZ4003],,,,inhibit the phosphorylation of MYPT1,50,comparable to that of shRNA knockdown of NUAK1,inhibited U2OS cell invasion similarly to NUAK1 knockout did
